According to patent US12077503B2, “Substituted cyclic amides and their use as herbicides” (FMC CORPORATION, priority 2015, dated 2024):
Like-named read-outs stand apart in the source and are kept apart here.

Experiments:
[1] = system: blackgrass (Alopecurus myosuroides); test: Test A postemergence; assay type: in vivo; conditions: Alopecurus myosuroides, post-emergence, 240 h; for pest or weed control at 125 g/ha: 125 g ai/ha; for pest or weed control at 500 g/ha: 500 g ai/ha, visual injury, approx. 10 d
Procedure, shortened: (§1)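 Seeded soil received test chemicals as a preemergence directed spray, and seedlings at one to two leaves, 2–10 cm tall, received them postemergence, in a non-phytotoxic, surfactant-containing solvent mixture. Pots were held in a greenhouse for approximately 10 d, then rated for injury from 0, no effect, to 100, complete control.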

[2] = system: pigweed (Amaranthus retroflexus); test: Test A postemergence; assay type: in vivo; conditions: Amaranthus retroflexus, post-emergence, 240 h; for pest or weed control at 125 g/ha: 125 g ai/ha; for pest or weed control at 500 g/ha: 500 g ai/ha, visual injury, approx. 10 d
Procedure, shortened: as §1

[3] = system: ryegrass, Italian (Italian ryegrass, Lolium multiflorum); test: Test A postemergence; assay type: in vivo; conditions: Lolium multiflorum, post-emergence, 240 h; for pest or weed control at 125 g/ha: 125 g ai/ha; for pest or weed control at 500 g/ha: 500 g ai/ha, visual injury, approx. 10 d
Procedure, shortened: as §1

corn (Zea mays) = test: Test A postemergence; assay type: in vivo; conditions: Zea mays, post-emergence, 240 h; for Corn plant response rating (crop injury, 0 = no effect, 100 = complete kill) at 125 g/ha / plant injury at 125 g/ha: 125 g ai/ha; for plant injury at 125 g/ha: visual rating about 10 d after treatment, read-out: Corn plant response rating (0 to 100 scale); for Corn plant response rating (crop injury, 0 = no effect, 100 = complete kill) at 500 g/ha: 500 g ai/ha, visual injury, approx. 10 d
Procedure, shortened: as §1

[4] = system: ragweed (common ragweed, Ambrosia elatior); test: Test A postemergence; assay type: in vivo; conditions: Ambrosia artemisiifolia, post-emergence, 240 h; for pest or weed control at 125 g/ha: 125 g ai/ha; for pest or weed control at 500 g/ha: 500 g ai/ha, visual injury, approx. 10 d
Procedure, shortened: as §1

Kochia (Kochia scoparia) = test: Test A postemergence; assay type: in vivo; conditions: Bassia scoparia, post-emergence, 240 h; for pest or weed control at 125 g/ha: 125 g ai/ha; for pest or weed control at 500 g/ha: 500 g ai/ha, visual injury, approx. 10 d
Procedure, shortened: as §1

[5] = Postemergence, visual rating about 10 d after treatment, read-out: Blackgrass plant response rating (0 to 100 scale)
[6] = Postemergence, 0 to 100 scale (0 no effect, 100 complete control), read-out: Plant response rating, Blackgrass
[7] = Postemergence, visual rating about 10 d after treatment, read-out: Pigweed plant response rating (0 to 100 scale)
[8] = Postemergence, 0 to 100 scale (0 no effect, 100 complete control), read-out: Plant response rating, Pigweed
[9] = Postemergence, visual rating about 10 d after treatment, read-out: Ryegrass, Italian plant response rating (0 to 100 scale)
[10] = Postemergence, 0 to 100 scale (0 no effect, 100 complete control), read-out: Plant response rating, Ryegrass, Italian
[11] = Postemergence, 0 to 100 scale (0 no effect, 100 complete control)
[12] = Postemergence, visual rating about 10 d after treatment, read-out: Ragweed plant response rating (0 to 100 scale)
[13] = Postemergence, 0 to 100 scale (0 no effect, 100 complete control), read-out: Plant response rating, Ragweed
[14] = Postemergence, visual rating about 10 d after treatment, read-out: Kochia plant response rating (0 to 100 scale)
[15] = Postemergence, 0 to 100 scale (0 no effect, 100 complete control), read-out: Plant response rating, Kochia
[16] = Postemergence, visual injury after approx. 10 d, 0 to 100 scale, 0 no effect, 100 complete control, read-out: Plant response rating, Blackgrass
[17] = Postemergence, visual injury after approx. 10 d, 0 to 100 scale, 0 no effect, 100 complete control, read-out: Plant response rating, Pigweed
[18] = Postemergence, visual injury after approx. 10 d, 0 to 100 scale, 0 no effect, 100 complete control, read-out: Plant response rating, Ryegrass, Italian
[19] = Postemergence, visual injury after approx. 10 d, 0 to 100 scale, 0 no effect, 100 complete control
[20] = Postemergence, visual injury after approx. 10 d, 0 to 100 scale, 0 no effect, 100 complete control, read-out: Plant response rating, Ragweed
[21] = Postemergence, visual injury after approx. 10 d, 0 to 100 scale, 0 no effect, 100 complete control, read-out: Plant response rating, Kochia

melting point	SMILES	pest or weed control at 125 g/ha [1, 5]	pest or weed control at 500 g/ha [1, 6]	pest or weed control at 125 g/ha [2, 7]	pest or weed control at 500 g/ha [2, 8]	pest or weed control at 125 g/ha [3, 9]	pest or weed control at 500 g/ha [3, 10]	plant injury at 125 g/ha (corn (Zea mays); Postemergence)	Corn plant response rating (crop injury, 0 = no effect, 100 = complete kill) at 500 g/ha (corn (Zea mays); [11])	pest or weed control at 125 g/ha [4, 12]	pest or weed control at 500 g/ha [4, 13]	pest or weed control at 125 g/ha (Kochia (Kochia scoparia); [14])	pest or weed control at 500 g/ha (Kochia (Kochia scoparia); [15])	pest or weed control at 125 g/ha [1, 16]	pest or weed control at 125 g/ha [2, 17]	pest or weed control at 125 g/ha [3, 18]	Corn plant response rating (crop injury, 0 = no effect, 100 = complete kill) at 125 g/ha (corn (Zea mays); [19])	pest or weed control at 125 g/ha [4, 20]	pest or weed control at 125 g/ha (Kochia (Kochia scoparia); [21])	other results
108 to 111 °C	CN1C[C@H](c2ccc(C(F)(F)F)cc2)[C@@H](C(=O)Nc2ccccc2C(F)(F)F)C1=O [Compound 726]	–	–	–	–	–	–	–	–	–	–	–	–	–	–	–	–	–	–	pest or weed control at 125 g/ha ([1]; postemergence, visual injury after approximately 10 d, 0 to 100 scale (0 no effect, 100 complete control), read-out: Plant response rating, Blackgrass): 50%; pest or weed control at 125 g/ha ([2]; postemergence, visual injury after approximately 10 d, 0 to 100 scale (0 no effect, 100 complete control), read-out: Plant response rating, Pigweed): 50%; pest or weed control at 125 g/ha ([3]; postemergence, visual injury after approximately 10 d, 0 to 100 scale (0 no effect, 100 complete control), read-out: Plant response rating, Ryegrass, Italian): 40%; Corn plant response rating (crop injury, 0 = no effect, 100 = complete kill) at 125 g/ha (corn (Zea mays); postemergence, visual injury after approximately 10 d, 0 to 100 scale (0 no effect, 100 complete control)): 60%; pest or weed control at 125 g/ha ([4]; postemergence, visual injury after approximately 10 d, 0 to 100 scale (0 no effect, 100 complete control), read-out: Plant response rating, Ragweed): 30%; pest or weed control at 125 g/ha (Kochia (Kochia scoparia); postemergence, visual injury after approximately 10 d, 0 to 100 scale (0 no effect, 100 complete control), read-out: Plant response rating, Kochia): 30%
124 to 127 °C	CN1CC(c2cccc(OCC=C(Cl)Cl)c2)C(C(=O)Nc2cccc(F)c2F)C1=O (centres unmarked) [Compound 1303]	0%	0%	0%	0%	0%	0%	0%	0%	0%	0%	–	–	–	–	–	–	–	–	–
–	Cc1c(F)ccc([C@H]2CNC(=O)[C@@H]2C(=O)Nc2cccc(F)c2F)c1F [Compound 1327]	0%	20%	0%	0%	0%	40%	0%	0%	0%	20%	0%	30%	–	–	–	–	–	–	–
–	Cc1c(F)ccc([C@H]2CNC(=O)[C@@H]2C(=O)Nc2ccc(F)cc2F)c1F [Compound 1328]	0%	0%	0%	0%	0%	30%	0%	0%	0%	0%	0%	0%	–	–	–	–	–	–	–
–	COc1cc(OC)cc([C@H]2CN(C)C(=O)[C@@H]2C(=O)Nc2cccc(F)c2F)c1 [Compound 1370]	50%	80%	0%	30%	40%	70%	30%	80%	0%	30%	50%	50%	–	–	–	–	–	–	–
–	CN1C[C@H](c2ccc(OC(F)F)cc2)[C@@H](C(=O)Nc2ccccc2F)C1=O [Compound 1371]	40%	60%	30%	60%	30%	50%	40%	90%	20%	60%	50%	80%	–	–	–	–	–	–	–
101.6 to 102.3 °C	Cc1ccc([C@H]2CN(C)C(=O)[C@@H]2C(=O)Nc2ccc(F)c(F)c2F)cc1 [Compound 1378]	30%	40%	30%	70%	40%	60%	80%	80%	40%	70%	–	–	–	–	–	–	–	–	–
–	Cc1ccc([C@H]2CN(C)C(=O)[C@@H]2C(=O)Nc2ccccc2F)cc1Cl [Compound 1384]	–	30%	–	20%	–	30%	–	90%	–	40%	–	60%	0%	0%	30%	70%	40%	40%	–
–	CC(C)c1cccc([C@H]2CN(C)C(=O)[C@@H]2C(=O)Nc2cccc(F)c2F)c1 [Compound 1388]	–	90%	–	50%	–	90%	–	80%	–	50%	–	50%	70%	40%	60%	60%	0%	30%	–
–	CN1C[C@H](c2cccc(C(F)(F)F)c2)[C@@H](C(=O)Nc2ccc(F)c(F)c2F)C1=O [Compound 1389]	–	50%	–	70%	–	80%	–	90%	–	20%	–	80%	50%	30%	70%	90%	0%	60%	–
